Test results published in patent EP2842965A1, “Neuromedin U analogs comprising serum albumin binding amino acid residue” (Gubra ApS, priority 2013, dated 2015).
Starred links: 1 amine or outer side, 2 acyl side, 3 side chain; linkers in the order of their positions; H or OH if unused. Residues, ends and D or L forms follow the SMILES beside them. Groups on a side chain read outwards from the residue. *: point of attachment. γGlu = O=C(O)[C@H](CCC(=O)[*:2])N[*:1]; Palmitoyl = CCCCCCCCCCCCCCCC(=O)*

What was measured:
[1] = biological target: T1, Neuromedin U receptor 2 (NMUR2) (Homo sapiens, UniProt Q9GZQ4); experiment: Functional assay (IP3 SPA-ysi assay) in HEK293 cells transfected with NMUR2; format: cell-based; settings: HEK293 cells transiently transfected with NMUR2; head says cAMP, method describes IP3 SPA readout
T1 construct: expressed in transfected cells; host or cells: HEK293 cells, transient calcium phosphate transfection; the empty-vector control is pcDNA3
T1 sequence (Q9GZQ4 whole entry): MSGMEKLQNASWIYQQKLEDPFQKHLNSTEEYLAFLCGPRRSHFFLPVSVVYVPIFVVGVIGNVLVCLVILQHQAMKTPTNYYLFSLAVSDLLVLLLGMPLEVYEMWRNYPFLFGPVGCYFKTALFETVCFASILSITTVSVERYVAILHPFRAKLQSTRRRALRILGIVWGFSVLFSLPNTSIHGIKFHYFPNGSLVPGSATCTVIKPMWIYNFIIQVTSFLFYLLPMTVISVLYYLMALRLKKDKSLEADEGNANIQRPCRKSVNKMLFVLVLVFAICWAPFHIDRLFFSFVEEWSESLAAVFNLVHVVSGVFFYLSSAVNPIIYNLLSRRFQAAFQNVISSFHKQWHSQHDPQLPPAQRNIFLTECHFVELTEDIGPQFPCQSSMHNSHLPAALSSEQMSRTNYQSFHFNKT
Protocol: (§1) All compounds were dissolved in dimethyl sulfoxide (DMSO), and then water was added (total DMSO conc. was 80%). The stock concentration was 1 mM for all the compounds. Stocks were alliquoted and frozen -20°C.
(§2) The day before each assay a new standard row was prepared by dilution of the stock solution in assay buffer (1 mM acetic acid + 0.1% bovine serum albumin (BSA)). The following concentrations were prepared (depending on the ligand potency): 10^-5, 10^-6, 10^-7, 10^-7.5, 10^-8, 10^-8.5, 10^-9, 10^-10, 10^-11, 10^-12 M.
Cell cultures: The HEK293 cells are grown in (DMEM31966 glutamax supplemented with 10% FBS (fetal bovine serum) and 1% penicillin G and streptomycin) and incubated at 37°C with 10% CO2 in a humidified atmosphere. The cells were split as follows. HEK293 cells approximately 80% confluent was used. The cells were removed from the bottom of the bottle by removing the media (DMEM31966 glutamax supplemented with 10% FBS and 1% penicillin G and streptomycin), rinsed with 5 mL phosphate buffered saline (PBS) and shaken gently. The PBS was removed and cells were released from the bottom with trypsin (1-2 mL) and incubated for 2-3 min. The flasks were then turned gently to ensure complete release of the cells from the bottom. Then media was added to the cells, (5-8 mL was used to rinse the cells of the bottom, this process was repeated approximately 4 times using the same media). Cell suspension was then transferred to a new bottle (approximately 4 × 10^6 cells per 175 cm^2 flask) and 20 mL media was added. Cells were incubated at 37°C with 10% CO2 in a humidified atmosphere.
Transfection of cells: HEK293 cells were seeded out at the density of 8 × 10^6 cells per 175 cm^2 flask 1 day prior to the transfection. Before transfection of cells, the culture medium was aspirated and half of the standard volume was added. 40 µg receptor-containing plasmid (Neuromedin U receptor 1 (NMUR1) or Neuromedin U receptor 2 (NMUR2)) or "empty" vector plasmid (pcDNA3), as a negative control, was mixed with 60 µL […] CaCl2 and Tris-EDTA (TE) buffer (10 mM tris(hydroxymethyl)aminomethane hydrochloride (Tris HCl), 1 mM ethylenedinitrilotetraacetic acid (EDTA), pH 7.5) to a total volume of 480 µL. The mixture was added drop-wise to another tube containing 480 µL 2 × HEPES buffered saline (HBS buffer) (280 mM NaCl, 50 mM 4-(2-Hydroxyethyl)piperazine-1-ethanesulfonic acid (HEPES), 1.5 mM NaHPO4, pH 7.2) and left for 45 min at room temperature for DNA precipitation. Afterwards, the precipitate was added carefully to the cells and cells were incubated for 5 hours at normal culture conditions. The transfection was stopped by change of the DNA-containing medium with 20 mL of fresh cell culture medium.
Seeding of the cells in 96 well plates: One day after transfection, cells were harvested using trypsin as described above. The cells were seeded in a poly-D-lysine coated clear 96 well plate. 100 µL cell suspension 350.000 cells/mL was added. 3H-myo-inositol (5µL/mL) was added to each well yielding a concentration of 35000 cells/well. The cells were incubated overnight before assay procedure the following day.
IP3 SPA-ysi assay: The media was removed and the plates were washed with 200 µL of Hank's balanced salt solution (HBSS) (Gibco, Life Technologies). 100 µL of HBSS/10 mM LiCl was added and the plates were incubated 15 min at 37°C. 5 µL ligand was added to each well and the plate was incubated at 37°C for 70-90 min (incubation time was approximately 1 h and 16 min for all plates). The plates were placed on ice and 50 µL formic acid (10 mM) was added to each well. The plates was left on ice for at least 30 min. 20 µL was then transferred to a white 96 well plate and 80 µL yttrium silicate (YSi) SPA-beads RPNQ0010 (Perkin Elmer) solution (0.0125 g/mL) is added to each well. The plates were sealed and shaken on high speed for 30 min, then centrifuged for 5 min at 1500 rpm and counted with 8 hours delay in the top counter. […]

[2] = biological target: T2, Neuromedin U receptor 1 (NMUR1) (Homo sapiens, UniProt Q9HB89); experiment: Functional assay (IP3 SPA-ysi assay) in HEK293 cells transfected with NMUR1; format: cell-based; settings: HEK293 cells transiently transfected with NMUR1; head says cAMP, method describes IP3 SPA readout
T2 construct: expressed in transfected cells; host or cells: HEK293 cells, transient calcium phosphate transfection
T2 sequence (Q9HB89 1-426): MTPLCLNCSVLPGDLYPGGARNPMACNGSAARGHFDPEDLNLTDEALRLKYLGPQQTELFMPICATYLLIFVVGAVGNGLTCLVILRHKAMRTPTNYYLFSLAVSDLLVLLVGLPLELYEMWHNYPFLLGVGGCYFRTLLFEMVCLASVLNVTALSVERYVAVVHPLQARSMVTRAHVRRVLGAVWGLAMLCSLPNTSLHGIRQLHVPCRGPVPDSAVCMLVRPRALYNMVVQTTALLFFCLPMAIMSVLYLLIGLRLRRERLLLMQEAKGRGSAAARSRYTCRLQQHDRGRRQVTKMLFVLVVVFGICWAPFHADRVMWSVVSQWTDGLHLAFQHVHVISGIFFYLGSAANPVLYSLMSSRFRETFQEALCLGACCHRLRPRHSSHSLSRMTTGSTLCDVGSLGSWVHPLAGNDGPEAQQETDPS
Protocol: as §1, §2
Cell cultures: The HEK293 cells are grown in (DMEM31966 glutamax supplemented with 10% FBS (fetal bovine serum) and 1% penicillin G and streptomycin) and incubated at 37°C with 10% CO2 in a humidified atmosphere. The cells were split as follows. HEK293 cells approximately 80% confluent was used. The cells were removed from the bottom of the bottle by removing the media (DMEM31966 glutamax supplemented with 10% FBS and 1% penicillin G and streptomycin), rinsed with 5 mL phosphate buffered saline (PBS) and shaken gently. […]
IP3 SPA-ysi assay: The media was removed and the plates were washed with 200 µL of Hank's balanced salt solution (HBSS) (Gibco, Life Technologies). […] The plates were sealed and shaken on high speed for 30 min, then centrifuged for 5 min at 1500 rpm and counted with 8 hours delay in the top counter. […]

| EC50 [1] [nM] | EC50 [2] [nM] | Structure (SMILES) |
| --- | --- | --- |
| 155 | – | CCCCCCCCCCCCCCCC(=O)N[C@@H](CCC(=O)NCCCC[C@H](NC(=O)[C@H](C)NC(=O)[C@H](Cc1ccccc1)NC(=O)[C@@H]1CCCN1C(=O)[C@H](CO)NC(=O)[C@H](CCC(N)=O)NC(=O)[C@H](Cc1ccccc1)NC(=O)[C@H](CCC(=O)O)NC(=O)[C@H](CCC(=O)O)NC(=O)[C@H](CC(=O)O)NC(=O)[C@@H](NC(=O)[C@H](CCCNC(=N)N)NC(=O)[C@@H](N)Cc1ccccc1)C(C)C)C(=O)N[C@@H](CCC(N)=O)C(=O)N[C@@H](CO)C(=O)N[C@@H](CCCNC(=N)N)C(=O)NCC(=O)N[C@@H](Cc1ccc(O)cc1)C(=O)N[C@@H](Cc1ccccc1)C(=O)N[C@@H](CC(C)C)C(=O)N[C@@H](Cc1ccccc1)C(=O)N[C@@H](CCCNC(=N)N)C(=O)N1CCC[C@H]1C(=O)N[C@@H](CCCNC(=N)N)C(=O)N[C@@H](CC(N)=O)C(N)=O)C(=O)O [SEQ ID NO 8] (H-FRVDEEFQSPFAK([γGlu-Palmitoyl])QSRGYFLFRPRN-NH2) |
| 162 | – | CCCCCCCCCCCCCCCC(=O)N[C@@H](CCC(=O)NCCCC[C@H](NC(=O)[C@H](CCC(N)=O)NC(=O)[C@H](CO)NC(=O)[C@H](C)NC(=O)[C@H](Cc1ccccc1)NC(=O)[C@@H]1CCCN1C(=O)[C@H](CO)NC(=O)[C@H](CCC(N)=O)NC(=O)[C@H](Cc1ccccc1)NC(=O)[C@H](CCC(=O)O)NC(=O)[C@H](CCC(=O)O)NC(=O)[C@H](CC(=O)O)NC(=O)[C@@H](NC(=O)[C@H](CCCNC(=N)N)NC(=O)[C@@H](N)Cc1ccccc1)C(C)C)C(=O)N[C@@H](CCCNC(=N)N)C(=O)NCC(=O)N[C@@H](Cc1ccc(O)cc1)C(=O)N[C@@H](Cc1ccccc1)C(=O)N[C@@H](CC(C)C)C(=O)N[C@@H](Cc1ccccc1)C(=O)N[C@@H](CCCNC(=N)N)C(=O)N1CCC[C@H]1C(=O)N[C@@H](CCCNC(=N)N)C(=O)N[C@@H](CC(N)=O)C(N)=O)C(=O)O [SEQ ID NO 5] (H-FRVDEEFQSPFASQK([γGlu-Palmitoyl])RGYFLFRPRN-NH2) |
| 50.5 | – | CCCCCCCCCCCCCCCC(=O)N[C@@H](CCC(=O)NCCCC[C@H](NC(=O)[C@@H](NC(=O)[C@H](CCCNC(=N)N)NC(=O)[C@@H](N)Cc1ccccc1)C(C)C)C(=O)N[C@@H](CCC(=O)O)C(=O)N[C@@H](CCC(=O)O)C(=O)N[C@@H](Cc1ccccc1)C(=O)N[C@@H](CCC(N)=O)C(=O)N[C@@H](CO)C(=O)N1CCC[C@H]1C(=O)N[C@@H](Cc1ccccc1)C(=O)N[C@@H](C)C(=O)N[C@@H](CO)C(=O)N[C@@H](CCC(N)=O)C(=O)N[C@@H](CO)C(=O)N[C@@H](CCCNC(=N)N)C(=O)NCC(=O)N[C@@H](Cc1ccc(O)cc1)C(=O)N[C@@H](Cc1ccccc1)C(=O)N[C@@H](CC(C)C)C(=O)N[C@@H](Cc1ccccc1)C(=O)N[C@@H](CCCNC(=N)N)C(=O)N1CCC[C@H]1C(=O)N[C@@H](CCCNC(=N)N)C(=O)N[C@@H](CC(N)=O)C(N)=O)C(=O)O [SEQ ID NO 17] (H-FRVK([γGlu-Palmitoyl])EEFQSPFASQSRGYFLFRPRN-NH2) |
| 52.8 | 51.4 | CCCCCCCCCCCCCCCC(=O)N[C@@H](CCC(=O)NCCCC[C@H](NC(=O)[C@H](CCC(=O)O)NC(=O)[C@H](CC(=O)O)NC(=O)[C@@H](NC(=O)[C@H](CCCNC(=N)N)NC(=O)[C@@H](N)Cc1ccccc1)C(C)C)C(=O)N[C@@H](Cc1ccccc1)C(=O)N[C@@H](CCC(N)=O)C(=O)N[C@@H](CO)C(=O)N1CCC[C@H]1C(=O)N[C@@H](Cc1ccccc1)C(=O)N[C@@H](C)C(=O)N[C@@H](CO)C(=O)N[C@@H](CCC(N)=O)C(=O)N[C@@H](CO)C(=O)N[C@@H](CCCNC(=N)N)C(=O)NCC(=O)N[C@@H](Cc1ccc(O)cc1)C(=O)N[C@@H](Cc1ccccc1)C(=O)N[C@@H](CC(C)C)C(=O)N[C@@H](Cc1ccccc1)C(=O)N[C@@H](CCCNC(=N)N)C(=O)N1CCC[C@H]1C(=O)N[C@@H](CCCNC(=N)N)C(=O)N[C@@H](CC(N)=O)C(N)=O)C(=O)O [SEQ ID NO 14] (H-FRVDEK([γGlu-Palmitoyl])FQSPFASQSRGYFLFRPRN-NH2) |
